According to PubChem BioAssay AID504473 (NMMLSC, 2011):
Activity calls are given as the source filed them.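 How the source made its calls: active means GFP ratio to DMSO above 1.5 or below 0.66; inactive means the rest.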

Experiments:
Assay in all cases: expression changes of rapamycin-responsive GFP fusion proteins, S. cerevisiae, GFP-tagged clone panel, flow cytometry (AID 504473);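 further: median GFP fluorescence of the cells measured by high-throughput flow cytometry; test concentration not given here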
YGR121C = settings: S. cerevisiae GFP-tagged strains, 3 h
YKL103C = settings: S. cerevisiae GFP-tagged strains, 3 h
YPL265W = settings: S. cerevisiae GFP-tagged strains, 3 h
YJL144W = settings: S. cerevisiae GFP-tagged strains, 3 h
YML026C = settings: S. cerevisiae GFP-tagged strains, 3 h
YML004C = settings: S. cerevisiae GFP-tagged strains, 3 h
YER081W = settings: S. cerevisiae GFP-tagged strains, 3 h
YLR237W = settings: S. cerevisiae GFP-tagged strains, 3 h
YHR018C = settings: S. cerevisiae GFP-tagged strains, 3 h
YLR287C-A = settings: S. cerevisiae GFP-tagged strains, 3 h
YLR367W = settings: S. cerevisiae GFP-tagged strains, 3 h
YEL007W = settings: S. cerevisiae GFP-tagged strains, 3 h
YER156C = settings: S. cerevisiae GFP-tagged strains, 3 h
YDR070C = settings: S. cerevisiae GFP-tagged strains, 3 h
YIL043C = settings: S. cerevisiae GFP-tagged strains, 3 h
YCR002C = settings: S. cerevisiae GFP-tagged strains, 3 h
YHL021C = settings: S. cerevisiae GFP-tagged strains, 3 h
YHR144C = settings: S. cerevisiae GFP-tagged strains, 3 h
YLR109W = settings: S. cerevisiae GFP-tagged strains, 3 h
YER117W = settings: S. cerevisiae GFP-tagged strains, 3 h
YLR142W = settings: S. cerevisiae GFP-tagged strains, 3 h
YKR094C = settings: S. cerevisiae GFP-tagged strains, 3 h
YDL205C = settings: S. cerevisiae GFP-tagged strains, 3 h
YJL056C = settings: S. cerevisiae GFP-tagged strains, 3 h
YIL066C = settings: S. cerevisiae GFP-tagged strains, 3 h
YGR019W = settings: S. cerevisiae GFP-tagged strains, 3 h
YCR005C = settings: S. cerevisiae GFP-tagged strains, 3 h
YEL071W = settings: S. cerevisiae GFP-tagged strains, 3 h
YBR072W = settings: S. cerevisiae GFP-tagged strains, 3 h
YEL063C = settings: S. cerevisiae GFP-tagged strains, 3 h
YBL087C = settings: S. cerevisiae GFP-tagged strains, 3 h
YLR185W = settings: S. cerevisiae GFP-tagged strains, 3 h
YOR375C = settings: S. cerevisiae GFP-tagged strains, 3 h
YFR031C-A = settings: S. cerevisiae GFP-tagged strains, 3 h
YOR371C = settings: S. cerevisiae GFP-tagged strains, 3 h
YDL204W = settings: S. cerevisiae GFP-tagged strains, 3 h
YML034W = settings: S. cerevisiae GFP-tagged strains, 3 h
YHR087W = settings: S. cerevisiae GFP-tagged strains, 3 h
YML063W = settings: S. cerevisiae GFP-tagged strains, 3 h
YNR001C = settings: S. cerevisiae GFP-tagged strains, 3 h
YNL142W = settings: S. cerevisiae GFP-tagged strains, 3 h
YHR141C = settings: S. cerevisiae GFP-tagged strains, 3 h
YPR145W = settings: S. cerevisiae GFP-tagged strains, 3 h
YBR208C = settings: S. cerevisiae GFP-tagged strains, 3 h
YIL069C = settings: S. cerevisiae GFP-tagged strains, 3 h
YLR058C = settings: S. cerevisiae GFP-tagged strains, 3 h
YFR053C = settings: S. cerevisiae GFP-tagged strains, 3 h
YPL111W = settings: S. cerevisiae GFP-tagged strains, 3 h
YKL119C = settings: S. cerevisiae GFP-tagged strains, 3 h
[1] = biological target: General amino acid permease AGP1 (Saccharomyces cerevisiae S288c) (UniProt P25376); settings: S. cerevisiae GFP-tagged strains, 3 h, YCL025C
Sequence of General amino acid permease AGP1 (Saccharomyces cerevisiae S288c) (P25376 whole entry, looked up): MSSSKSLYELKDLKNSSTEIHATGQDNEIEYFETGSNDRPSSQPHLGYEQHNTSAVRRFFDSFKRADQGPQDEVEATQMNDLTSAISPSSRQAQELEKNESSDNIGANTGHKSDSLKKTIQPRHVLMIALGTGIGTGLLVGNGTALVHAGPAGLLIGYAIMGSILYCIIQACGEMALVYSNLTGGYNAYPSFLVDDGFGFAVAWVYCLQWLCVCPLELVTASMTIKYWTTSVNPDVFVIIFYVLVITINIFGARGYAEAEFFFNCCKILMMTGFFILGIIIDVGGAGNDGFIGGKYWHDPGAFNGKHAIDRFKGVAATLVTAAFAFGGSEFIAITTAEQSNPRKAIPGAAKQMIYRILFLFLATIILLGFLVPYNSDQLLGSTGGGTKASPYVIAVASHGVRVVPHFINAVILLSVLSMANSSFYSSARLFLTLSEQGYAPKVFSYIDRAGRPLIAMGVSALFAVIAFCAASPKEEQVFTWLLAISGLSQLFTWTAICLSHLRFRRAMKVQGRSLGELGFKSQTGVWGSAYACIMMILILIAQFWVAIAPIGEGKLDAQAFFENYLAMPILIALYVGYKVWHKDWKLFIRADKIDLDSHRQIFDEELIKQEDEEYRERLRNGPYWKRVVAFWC

YKR093W = settings: S. cerevisiae GFP-tagged strains, 3 h
YER151C = settings: S. cerevisiae GFP-tagged strains, 3 h
YGR034W = settings: S. cerevisiae GFP-tagged strains, 3 h
YOR173W = settings: S. cerevisiae GFP-tagged strains, 3 h
YPL220W = settings: S. cerevisiae GFP-tagged strains, 3 h
YKL086W = settings: S. cerevisiae GFP-tagged strains, 3 h
YNL015W = settings: S. cerevisiae GFP-tagged strains, 3 h
YGL036W = settings: S. cerevisiae GFP-tagged strains, 3 h
YKR039W = settings: S. cerevisiae GFP-tagged strains, 3 h
YCL064C = settings: S. cerevisiae GFP-tagged strains, 3 h
YDL130W = settings: S. cerevisiae GFP-tagged strains, 3 h
YPL131W = settings: S. cerevisiae GFP-tagged strains, 3 h
YHR203C = settings: S. cerevisiae GFP-tagged strains, 3 h
YMR251W-A = settings: S. cerevisiae GFP-tagged strains, 3 h
YDR453C = settings: S. cerevisiae GFP-tagged strains, 3 h
YJR148W = settings: S. cerevisiae GFP-tagged strains, 3 h
YNL214W = settings: S. cerevisiae GFP-tagged strains, 3 h
YML128C = settings: S. cerevisiae GFP-tagged strains, 3 h
YMR307W = settings: S. cerevisiae GFP-tagged strains, 3 h
YOL052C-A = settings: S. cerevisiae GFP-tagged strains, 3 h
YMR120C = settings: S. cerevisiae GFP-tagged strains, 3 h
YAL060W = settings: S. cerevisiae GFP-tagged strains, 3 h
YAL061W = settings: S. cerevisiae GFP-tagged strains, 3 h
YPR132W = settings: S. cerevisiae GFP-tagged strains, 3 h
YIL052C = settings: S. cerevisiae GFP-tagged strains, 3 h
YGL147C = settings: S. cerevisiae GFP-tagged strains, 3 h
YMR105C = settings: S. cerevisiae GFP-tagged strains, 3 h
YPL150W = settings: S. cerevisiae GFP-tagged strains, 3 h
YOR063W = settings: S. cerevisiae GFP-tagged strains, 3 h
YEL060C = settings: S. cerevisiae GFP-tagged strains, 3 h
YBR139W = settings: S. cerevisiae GFP-tagged strains, 3 h
YPR184W = settings: S. cerevisiae GFP-tagged strains, 3 h
YLL039C = settings: S. cerevisiae GFP-tagged strains, 3 h
YDR382W = settings: S. cerevisiae GFP-tagged strains, 3 h
YOR182C = settings: S. cerevisiae GFP-tagged strains, 3 h
YOR136W = settings: S. cerevisiae GFP-tagged strains, 3 h
YGL135W = settings: S. cerevisiae GFP-tagged strains, 3 h
YNL112W = settings: S. cerevisiae GFP-tagged strains, 3 h
YBR248C = settings: S. cerevisiae GFP-tagged strains, 3 h
YIL051C = settings: S. cerevisiae GFP-tagged strains, 3 h
YOR038C = settings: S. cerevisiae GFP-tagged strains, 3 h
YGL062W = settings: S. cerevisiae GFP-tagged strains, 3 h
YGR088W = settings: S. cerevisiae GFP-tagged strains, 3 h
YLL026W = settings: S. cerevisiae GFP-tagged strains, 3 h
YNL068C = settings: S. cerevisiae GFP-tagged strains, 3 h
YDR399W = settings: S. cerevisiae GFP-tagged strains, 3 h

With CNc1nc(N)c([N+](=O)[O-])c(Nc2ccccc2)n1 the GFP ratio to DMSO (YGR121C) was 0.942 (inactive), the GFP ratio to DMSO (YKL103C) was 0.988 (inactive) and the GFP ratio to DMSO (YPL265W) was 1.38 (inactive). For the same compound, the GFP ratio to DMSO (YJL144W) was 0.911 (inactive), the GFP ratio to DMSO (YML026C) was 0.957 (inactive) and the GFP ratio to DMSO (YML004C) was 0.838 (inactive). For the same compound, the GFP ratio to DMSO (YER081W) was 1.14 (inactive), the GFP ratio to DMSO (YLR237W) was 0.848 (inactive) and the GFP ratio to DMSO (YHR018C) was 0.874 (inactive). The GFP ratio to DMSO (YLR287C-A) was 1.1 (inactive), the GFP ratio to DMSO (YLR367W) was 1.06 (inactive) and the GFP ratio to DMSO (YEL007W) was 0.874 (inactive). The GFP ratio to DMSO (YER156C) was 0.978 (inactive), the GFP ratio to DMSO (YDR070C) was 0.918 (inactive) and the GFP ratio to DMSO (YIL043C) was 1.02 (inactive). For the same compound, the GFP ratio to DMSO (YCR002C) was 0.929 (inactive), the GFP ratio to DMSO (YHL021C) was 1.07 (inactive) and the GFP ratio to DMSO (YHR144C) was 0.896 (inactive). For the same compound, the GFP ratio to DMSO (YLR109W) was 1.17 (inactive), the GFP ratio to DMSO (YER117W) was 0.909 (inactive) and the GFP ratio to DMSO (YLR142W) was 0.866 (inactive). The GFP ratio to DMSO (YKR094C) was 1.11 (inactive), the GFP ratio to DMSO (YDL205C) was 0.983 (inactive) and the GFP ratio to DMSO (YJL056C) was 0.808 (inactive). For the same compound, the GFP ratio to DMSO (YIL066C) was 0.844 (inactive), the GFP ratio to DMSO (YGR019W) was 0.906 (inactive) and the GFP ratio to DMSO (YCR005C) was 1.37 (inactive). The GFP ratio to DMSO (YEL071W) was 1.66, the GFP ratio to DMSO (YBR072W) was 0.795 (inactive) and the GFP ratio to DMSO (YEL063C) was 1.03 (inactive). For the same compound, the GFP ratio to DMSO (YBL087C) was 1 (inactive), the GFP ratio to DMSO (YLR185W) was 1.08 (inactive) and the GFP ratio to DMSO (YOR375C) was 1.03 (inactive). For the same compound, the GFP ratio to DMSO (YFR031C-A) was 1.06 (inactive), the GFP ratio to DMSO (YOR371C) was 0.844 (inactive) and the GFP ratio to DMSO (YDL204W) was 0.948 (inactive). The GFP ratio to DMSO (YML034W) was 0.814 (inactive), the GFP ratio to DMSO (YHR087W) was 0.827 (inactive) and the GFP ratio to DMSO (YML063W) was 1.07 (inactive). For the same compound, the GFP ratio to DMSO (YNR001C) was 1.05 (inactive), the GFP ratio to DMSO (YNL142W) was 0.933 (inactive) and the GFP ratio to DMSO (YHR141C) was 1.04 (inactive). The GFP ratio to DMSO (YPR145W) was 1.17 (inactive), the GFP ratio to DMSO (YBR208C) was 0.853 (inactive) and the GFP ratio to DMSO (YIL069C) was 1.11 (inactive). The GFP ratio to DMSO (YLR058C) was 0.838 (inactive), the GFP ratio to DMSO (YFR053C) was 0.83 (inactive) and the GFP ratio to DMSO (YPL111W) was 1.02 (inactive). For the same compound, the GFP ratio to DMSO (YKL119C) was 0.959 (inactive), the GFP ratio to DMSO [1] was 0.776 (inactive) and the GFP ratio to DMSO (YKR093W) was 1.17 (inactive). The GFP ratio to DMSO (YER151C) was 0.943 (inactive), the GFP ratio to DMSO (YGR034W) was 1.07 (inactive) and the GFP ratio to DMSO (YOR173W) was 0.941 (inactive). For the same compound, the GFP ratio to DMSO (YPL220W) was 1.01 (inactive), the GFP ratio to DMSO (YKL086W) was 0.881 (inactive) and the GFP ratio to DMSO (YNL015W) was 0.929 (inactive). For the same compound, the GFP ratio to DMSO (YGL036W) was 0.822 (inactive), the GFP ratio to DMSO (YKR039W) was 0.804 (inactive) and the GFP ratio to DMSO (YCL064C) was 0.878 (inactive). The GFP ratio to DMSO (YDL130W) was 1.09 (inactive), the GFP ratio to DMSO (YPL131W) was 1.14 (inactive) and the GFP ratio to DMSO (YHR203C) was 1.04 (inactive). For the same compound, the GFP ratio to DMSO (YMR251W-A) was 0.892 (inactive), the GFP ratio to DMSO (YDR453C) was 0.899 (inactive) and the GFP ratio to DMSO (YJR148W) was 1.26 (inactive). For the same compound, the GFP ratio to DMSO (YNL214W) was 1.01 (inactive), the GFP ratio to DMSO (YML128C) was 0.827 (inactive) and the GFP ratio to DMSO (YMR307W) was 1.05 (inactive). The GFP ratio to DMSO (YOL052C-A) was 0.961 (inactive), the GFP ratio to DMSO (YMR120C) was 0.519 and the GFP ratio to DMSO (YAL060W) was 0.91 (inactive). The GFP ratio to DMSO (YAL061W) was 0.796 (inactive), the GFP ratio to DMSO (YPR132W) was 1.18 (inactive) and the GFP ratio to DMSO (YIL052C) was 0.931 (inactive). The GFP ratio to DMSO (YGL147C) was 1.05 (inactive), the GFP ratio to DMSO (YMR105C) was 1.02 (inactive) and the GFP ratio to DMSO (YPL150W) was 0.843 (inactive). The GFP ratio to DMSO (YOR063W) was 1.07 (inactive), the GFP ratio to DMSO (YEL060C) was 0.694 (inactive) and the GFP ratio to DMSO (YBR139W) was 0.915 (inactive). For the same compound, the GFP ratio to DMSO (YPR184W) was 0.886 (inactive), the GFP ratio to DMSO (YLL039C) was 0.733 (inactive) and the GFP ratio to DMSO (YDR382W) was 1.14 (inactive). The GFP ratio to DMSO (YOR182C) was 1.02 (inactive), the GFP ratio to DMSO (YOR136W) was 1.11 (inactive) and the GFP ratio to DMSO (YGL135W) was 1.08 (inactive). For the same compound, the GFP ratio to DMSO (YNL112W) was 1.12 (inactive), the GFP ratio to DMSO (YBR248C) was 0.927 (inactive) and the GFP ratio to DMSO (YIL051C) was 0.923 (inactive). For the same compound, the GFP ratio to DMSO (YOR038C) was 0.966 (inactive), the GFP ratio to DMSO (YGL062W) was 1.34 (inactive) and the GFP ratio to DMSO (YGR088W) was 0.924 (inactive). For the same compound, the GFP ratio to DMSO (YLL026W) was 1 (inactive), the GFP ratio to DMSO (YNL068C) was 0.902 (inactive) and the GFP ratio to DMSO (YDR399W) was 0.947 (inactive).
